For 16 compounds, GI50 results are on record in ChEMBL document CHEMBL4177640, “Potential anti-proliferative agents from 1,4-benzoxazinone-quinazolin-4(3H)-one templates” (2017).

Format in all cases: functional
In one test the test system is HeLa. As to the kind of experiment: Antiproliferative activity against human HeLa cells after 48 hrs by SRB cell proliferation assay.
Another test deals with A549. As to the kind of experiment: Antiproliferative activity against human A549 cells after 48 hrs by SRB cell proliferation assay. As to conditions: A549, 48 h.
The next test has as its system MDA-MB-231. As to the kind of experiment: Antiproliferative activity against human MDA-MB-231 cells after 48 hrs by SRB cell proliferation assay. As to conditions: MDA-MB-231, 48 h.

Regarding `CCOc1ccc(-c2nc3ccccc3c(=O)n2C/C=C/c2ccc(C(=O)CN3C(=O)COc4ccccc43)cc2)cc1`, the GI50 is 1050 nM in the test with HeLa, 1000 nM in the test on A549 and 1130 nM with MDA-MB-231.

For the compound `O=C(CN1C(=O)COc2ccccc21)c1ccc(/C=C/Cn2c(-c3ccc(F)cc3)nc3ccccc3c2=O)cc1`, the results for the GI50 in the test with HeLa, with A549 and in the test on MDA-MB-231 were 1020 nM, 810 nM and 1520 nM, respectively.

On to `O=C(CN1C(=O)COc2ccccc21)c1ccc(/C=C/Cn2c(-c3ccc([N+](=O)[O-])cc3)nc3ccccc3c2=O)cc1`, for which the GI50 in the test with HeLa came out at 660 nM; in the test on A549, 1000 nM; in the test with MDA-MB-231 it was 8800 nM.

For `COc1ccc(-c2nc3ccccc3c(=O)n2C/C=C/c2ccc(C(=O)CN3C(=O)COc4ccccc43)cc2)cc1`, the figures for the GI50 in the test with HeLa, in the test on A549 and in the test on MDA-MB-231 were 1030 nM, 1500 nM and 3600 nM, respectively.

Consider `O=C(CN1C(=O)COc2ccccc21)c1ccc(/C=C/Cn2c(-c3ccc(C(F)(F)F)cc3)nc3ccccc3c2=O)cc1`, for which the GI50 turned out to be 1320 nM with HeLa, 930 nM with A549 and 580 nM in the test with MDA-MB-231.

As to `O=C(CN1C(=O)COc2ccccc21)c1ccc(/C=C/Cn2c(-c3ccc(Cl)cc3)nc3ccccc3c2=O)cc1`, the figures for the GI50 in the test with HeLa, with A549 and with MDA-MB-231 were 1100 nM, 760 nM and 2000 nM, respectively.

Regarding `COc1ccc(-c2nc3ccccc3c(=O)n2C/C=C/c2ccc(C(=O)CN3C(=O)COc4ccccc43)cc2)c(OC)c1`, the GI50 with HeLa turned out to be 590 nM; in the test with A549, 1360 nM; in the test on MDA-MB-231, 6030 nM.

Turning to `COc1ccc(-c2nc3ccccc3c(=O)n2C/C=C/c2ccc(C(=O)CN3C(=O)COc4ccccc43)cc2)c(F)c1`, the GI50 in the test with HeLa came out at 370 nM; in the test with A549, 670 nM; with MDA-MB-231, 2400 nM.

With `COc1cccc(-c2nc3ccccc3c(=O)n2C/C=C/c2ccc(C(=O)CN3C(=O)COc4ccccc43)cc2)c1`, the values for the GI50 in the test with HeLa, in the test with A549 and with MDA-MB-231 were 550 nM, 610 nM and 13000 nM, respectively.

As for `Cc1ccc(-c2nc3ccccc3c(=O)n2C/C=C/c2ccc(C(=O)CN3C(=O)COc4ccccc43)cc2)cc1`, the GI50 came out at 1400 nM with HeLa, 900 nM in the test with A549 and 3400 nM with MDA-MB-231.

In the case of `O=C(CN1C(=O)COc2ccccc21)c1ccc(/C=C/Cn2c(-c3ccc(Cl)cc3Cl)nc3ccccc3c2=O)cc1`, the GI50 in the test on HeLa came to 620 nM; in the test with A549, 910 nM; in the test with MDA-MB-231, 2730 nM.

Take `COc1ccc(-c2nc3ccccc3c(=O)n2C/C=C/c2ccc(C(=O)CN3C(=O)COc4ccccc43)cc2)c(OC)c1OC`: the GI50 in the test with HeLa came out at 1510 nM; in the test on A549 it was 320 nM; in the test on MDA-MB-231, 6760 nM.

For `Cc1nc2ccccc2c(=O)n1C/C=C/c1ccc(C(=O)CN2C(=O)COc3ccccc32)cc1`, the GI50 in the test on HeLa worked out at 880 nM; in the test on A549 it was 910 nM; in the test with MDA-MB-231 it was 6140 nM.

With `O=C(CN1C(=O)COc2ccccc21)c1ccc(/C=C/Cn2c(-c3ccccc3)nc3ccccc3c2=O)cc1`, the GI50 in the test on HeLa came to 1370 nM; with A549 it was 1000 nM; in the test on MDA-MB-231 it was 13400 nM.

Regarding `COc1ccc(/C=C\c2cc(OC)c(OC)c(OC)c2)cc1O` [COMBRETASTATIN A4], the values for the GI50 in the test on HeLa, with A549 and in the test with MDA-MB-231 were 84 nM, 56 nM and 46 nM, respectively.

`COC(=O)Nc1nc2cc(C(=O)c3cccs3)ccc2[nH]1` [NOCODAZOLE]: the GI50 in the test with HeLa, with A549 and in the test on MDA-MB-231 was under 10 nM each time.

One may read the GI50 as the concentration that inhibits growth by half. The low end stands for greater sensitivity of the cells, the high end for lower sensitivity of the cells.
